In assay [1] the target is T1, myeloperoxidase (Homo sapiens (Human), UniProt P05164). Nature of the assay: MPO Chlorination Assay (APF Assay). The note with it: potency range class. It counts as biochemical. As for the experimental part: (§1) [formula] where A=minimal Y value (activity level of inhibited sample), B=maximal Y value (activity level of uninhibited sample), C=Log IC50, D=Hill Slope, x=concentration of inhibitor. MPO Chlorination Assay (APF Assay)
MPO chlorination activity was measured in 100 mM KPi (pH 7.4) by utilizing the non-fluorescent reagent Aminophenyl fluorescein (APF, Invitrogen Cat. #A36003). APF is cleaved by (—OCl) to yield the fluorescent compound fluorescein. Reactions were carried out in 50 μL total volume by adding a 25 μL mixture of 200 pM myeloperoxidase and 120 mM NaCl to 100 nL inhibitor in 100% DMSO in a 384 well, non-binding surface clear bottom plate (Corning #3655). Enzyme, inhibitor, and chloride were preincubated for ten minutes at rt.
After the ten minute preincubation, 25 μL of an APF mixture containing […], 120 mM NaCl and 10 μM H2O2 was added to the plate using the internal dispensing system of a Hammatsu FDSS 6000. Kinetic determinations were carried out immediately on the FDSS 6000 (3 minute kinetic read, 1 read every second, ex: 485 nm, em: 535 nm). IC50 values for inhibitors were calculated by taking the slope of the linear portion of the kinetic measurement (20 seconds to ˜80-120 secs). […]
[formula] where A=minimal Y value (activity level of inhibited sample), B=maximal Y value (activity level of uninhibited sample), C=Log IC50, D=Hill Slope, x=concentration of inhibitor.

The target of assay [2] is T1, myeloperoxidase. Description: MPO Peroxidation Assay (Amplex Red Assay). The format is biochemical. The following applies: potency range class. As for the experimental part:
MPO Peroxidation Assay (Amplex Red Assay)
MPO peroxidation activity was measured in 100 mM KPi (pH 7.4) by utilizing the non-fluorescent reagent Amplex Red (Invitrogen Cat. #A12222) which can be oxidized to the highly fluorescent resorufin. Amplex Red is oxidized by the peroxidase action of MPO to resorufin. Reactions were carried out in 50 μL total volume by adding a 25 μL mixture of 200 pM myeloperoxidase and 40 nM H2O2(Sigma #349887) to 100 nL inhibitor in 100% DMSO in a 384 well Perkin Elmer Optiplate. Enzyme and compound were preincubated for ten minutes at rt.
After the ten minute preincubation, 25 μL of an Amplex Red mixture containing 200 μM Amplex Red and 10 mM H2O2 was added to the plate. Kinetic determinations were carried out immediately on a Perkin Elmer Envision (15 minute kinetic read, Ex: 535 nm, Em: 590 nm).
IC50 values were calculated by determining the slope of the linear portion of the kinetic trace (180-540 secs), and using that calculated slope to determine % inhibition occurring at each concentration of inhibitor using the following equation:
as §1

One may read the IC50 as the concentration that gives 50% inhibition.

T1 sequence (P05164 49-745): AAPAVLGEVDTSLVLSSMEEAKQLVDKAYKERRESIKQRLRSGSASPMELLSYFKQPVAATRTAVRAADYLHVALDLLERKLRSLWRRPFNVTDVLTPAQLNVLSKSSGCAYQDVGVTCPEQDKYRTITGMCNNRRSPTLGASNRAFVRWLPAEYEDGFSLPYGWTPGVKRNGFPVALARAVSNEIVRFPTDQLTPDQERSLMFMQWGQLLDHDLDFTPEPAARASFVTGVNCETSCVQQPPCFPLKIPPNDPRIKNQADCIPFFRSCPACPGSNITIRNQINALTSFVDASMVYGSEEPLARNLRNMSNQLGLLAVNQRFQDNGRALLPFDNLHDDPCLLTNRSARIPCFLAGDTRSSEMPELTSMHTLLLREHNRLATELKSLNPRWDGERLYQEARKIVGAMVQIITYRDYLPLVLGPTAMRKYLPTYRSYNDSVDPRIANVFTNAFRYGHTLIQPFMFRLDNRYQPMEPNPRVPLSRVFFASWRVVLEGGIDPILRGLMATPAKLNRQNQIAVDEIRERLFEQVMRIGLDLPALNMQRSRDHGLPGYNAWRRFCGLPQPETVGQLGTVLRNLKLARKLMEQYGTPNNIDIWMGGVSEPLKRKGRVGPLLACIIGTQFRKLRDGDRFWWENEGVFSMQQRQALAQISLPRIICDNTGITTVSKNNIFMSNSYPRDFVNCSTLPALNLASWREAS

In the case of `Nc1cc(C(CCCc2ccc3ccccc3c2)c2cnn(Cc3ccc4c(c3)CCNC4)c2)c2nn[nH]c2n1` (stereo not drawn) [Example 7, 7-[4-(naphthalen-2-yl)-1-[1-(1,2,3,4-tetrahydroisoquinolin-6-ylmethyl)-1H-pyrazol-4-yl]butyl]-3H-[1,2,3]triazolo[4,5-b]pyridin-5-amine], the results for the concentration for half-maximal inhibition (IC50) in assay [1] and in assay [2] were 1 to 100 nM and 101 to 999 nM, respectively.

For `Nc1cc(C(CCN[C@H]2CC[C@H](c3ccccc3)CC2)c2cnn(C3CCCC3)c2)c2nn[nH]c2n1` (stereo partly drawn) [Example 23, 7-[1-(1-Cyclopentyl-1H-pyrazol-4-yl)-3-{[trans-4-phenylcyclohexyl]amino}propyl]-3H-[1,2,3]triazolo[4,5-b]pyridin-5-amine], the IC50 in assay [1] lay in the range of 1 to 100 nM; in assay [2] it was 1000 to 10000 nM. Take `Nc1cc(C(CCN[C@@H]2CC[C@@H](Cc3ccccc3)C2)c2cnn(CCc3cccc(O)c3)c2)c2nn[nH]c2n1` (stereo partly drawn) [Example 53]: the figures for the IC50 in assay [1] and in assay [2] were 101 to 999 nM and 1000 to 10000 nM, respectively. The matching figures for `Nc1cc(C(CCN[C@@H]2C[C@@H](Cc3ccccc3)[C@H](O)C2)c2cnn(Cc3cccc(O)c3)c2)c2nn[nH]c2n1` (stereo partly drawn) [Example 42, 3-{[4-(1-{5-Amino-3H-[1,2,3]triazolo[4,5-b]pyridin-7-yl}-3-{[(1R,3R,4R)-3-benzyl-4-hydroxycyclopentyl]amino}propyl)-1H-pyrazol-1-yl]methyl}phenol]: 1 to 100 nM and 1 to 100 nM. Taken in the same sequence, the figures for `Nc1cc(C(CCC(c2ccccc2)c2ccccc2)c2cnn(Cc3ccc4c(c3)CCNC4)c2)c2nn[nH]c2n1` (stereo not drawn) [Example 5, 7-{4,4-diphenyl-1-[1-(1,2,3,4-tetrahydroisoquinolin-6-ylmethyl)-1H-pyrazol-4-yl]butyl}-3H-[1,2,3]triazolo[4,5-b]pyridin-5-amine] were 1 to 100 nM and 1000 to 10000 nM. For `Nc1cc(C(CCCc2ccccc2)c2cnn(Cc3cccc(C4CCNCC4)c3)c2)c2nn[nH]c2n1` (stereo not drawn) [Example 13, 7-[4-Phenyl-1-(1-{[3-(piperidin-4-yl)phenyl]methyl}-1H-pyrazol-4-yl)butyl]-3H-[1,2,3]triazolo[4,5-b]pyridin-5-amine], the IC50 in assay [1] lay within 1 to 100 nM; in assay [2], 101 to 999 nM. `Nc1cc(C(CCCC2CCCCC2)c2cnn(Cc3ccc4c(c3)CCNC4)c2)c2nn[nH]c2n1` (stereo not drawn) [Example 6, 7-{4-cyclohexyl-1-[1-(1,2,3,4-tetrahydroisoquinolin-6-ylmethyl)-1H-pyrazol-4-yl]butyl}-3H-[1,2,3]triazolo[4,5-b]pyridin-5-amine]: the half-maximal inhibitory concentration (IC50) in assay [1] fell in the range of 1 to 100 nM; in assay [2] it was 101 to 999 nM.

Regarding `Nc1cc(C(CCN[C@H]2CC[C@H](c3ccccc3)CC2)c2cnn(C3CCC(F)(F)C3)c2)c2nn[nH]c2n1` (relative stereo) [Example 27, 7-{1-[1-(3,3-Difluorocyclopentyl)-1H-pyrazol-4-yl]-3-{[trans-4-phenylcyclohexyl]amino}propyl}-3H-[1,2,3]triazolo[4,5-b]pyridin-5-amine], the IC50 in assay [1] fell in the range of 1 to 100 nM; in assay [2], 101 to 999 nM. `Nc1cc(C(CCOCc2ccccc2)c2cnn(Cc3ccc4c(c3)CCNC4)c2)c2nn[nH]c2n1` (stereo not drawn) [Example 4, 7-(3-(benzyloxy)-1-(1-((1,2,3,4-tetrahydroisoquinolin-6-yl)methyl)-1H-pyrazol-4-yl)propyl)-3H-[1,2,3]triazolo[4,5-b]pyridin-5-amine]: the 50% inhibitory concentration (IC50) in assay [1] lay in the range of 101 to 999 nM; in assay [2] it was 1000 to 10000 nM. Consider `Nc1cc([C@@H](CCN[C@H]2CC[C@H](c3ccccc3)CC2)c2cnn(Cc3cccc(OC(F)F)c3)c2)c2nn[nH]c2n1` [Example 33B, 7(R)-[1-(1-{[3-(Difluoromethoxy)phenyl]methyl}-1H-pyrazol-4-yl)-3-{[trans-4-phenylcyclohexyl]amino}propyl]-3H-[1,2,3]triazolo[4,5-b]pyridin-5-amine], for which the IC50 in assay [1] and in assay [2] was 1 to 100 nM throughout. In the case of `Nc1cc(C(CCN[C@H]2CC[C@H](c3ccccc3)CC2)c2cnn(Cc3ccc(Cl)cc3)c2)c2nn[nH]c2n1` (stereo partly drawn) [Example 19, 7-(1-{1-[(4-Chlorophenyl)methyl]-1H-pyrazol-4-yl}-3-{[trans-4-phenylcyclohexyl]amino}propyl)-3H-[1,2,3]triazolo[4,5-b]pyridin-5-amine], the values for the concentration for half-maximal inhibition (IC50) in assay [1] and in assay [2] were 1 to 100 nM and 101 to 999 nM, respectively. Take `Nc1cc(C(CCCc2ccccc2)c2cnn(Cc3ccc4c(c3)CCNC4)c2)c2nn[nH]c2n1` (stereo not drawn) [Example 1, 7-(4-phenyl-1-(1-((1,2,3,4-tetrahydroisoquinolin-6-yl)methyl)-1H-pyrazol-4-yl)butyl)-3H-[1,2,3]triazolo[4,5-b]pyridin-5-amine]: the IC50 fell in the range of 1 to 100 nM in assay [1] and 1000 to 10000 nM in assay [2].

On to `Nc1cc(C(CCN[C@H]2CC[C@H](c3ccccc3)CC2)c2cnn(C3CCC3)c2)c2nn[nH]c2n1` (stereo partly drawn) [Example 20, 7-[1-(1-Cyclobutyl-1H-pyrazol-4-yl)-3-{[(1r,4r)-4-phenylcyclohexyl]amino}propyl]-3H-[1,2,3]triazolo[4,5-b]pyridin-5-amine], for which the IC50 in assay [1] is 1 to 100 nM; in assay [2] it was 101 to 999 nM. As for `Nc1cc(C(CCNCc2cccc(O)c2)c2cnn(Cc3cccc(O)c3)c2)c2nn[nH]c2n1` (stereo not drawn) [Example 49], the values for the IC50 in assay [1] and in assay [2] were 101 to 999 nM and 1000 to 10000 nM, respectively.

Turning to `Nc1cc(C(CCN[C@H]2CC[C@H](c3ccccc3)CC2)c2cc[nH]n2)c2nn[nH]c2n1` (stereo partly drawn) [Example 36, 7-[1-(1H-Pyrazol-3-yl)-3-{[trans-4-phenylcyclohexyl]amino}propyl]-3H-[1,2,3]triazolo[4,5-b]pyridin-5-amine], the half-maximal inhibitory concentration (IC50) in assay [1] was 101 to 999 nM; in assay [2], 1000 to 10000 nM. As to `Nc1cc(C(CCCC2NCCc3ccccc32)c2cnn(Cc3ccccc3)c2)c2nn[nH]c2n1` (stereo not drawn) [Example 14, 7-[1-(1-Benzyl-1H-pyrazol-4-yl)-4-(1,2,3,4-tetrahydroisoquinolin-1-yl)butyl]-3H-[1,2,3]triazolo[4,5-b]pyridin-5-amine], the IC50 in assay [1] lay within 1 to 100 nM; in assay [2], 101 to 999 nM.

As to `Nc1cc(C(CCNCc2cccc(CO)c2)c2cnn(Cc3cccc(O)c3)c2)c2nn[nH]c2n1` (stereo not drawn) [Example 48], the values for the half-maximal inhibitory concentration (IC50) in assay [1] and in assay [2] were 101 to 999 nM and 1000 to 10000 nM, respectively. Regarding `CC(c1cnn(Cc2ccc3c(c2)CCNC3)c1)c1cc(N)nc2[nH]nnc12` (stereo not drawn) [Example 3, 7-{1-[1-(1,2,3,4-tetrahydroisoquinolin-6-ylmethyl)-1H-pyrazol-4-yl]ethyl}-3H-[1,2,3]triazolo[4,5-b]pyridin-5-amine], the half-maximal inhibitory concentration (IC50) in assay [1] and in assay [2] was 101 to 999 nM throughout. As to `Nc1cc(C(CCN[C@H]2CC[C@H](c3ccccc3)CC2)c2cnn(CC3CCC3)c2)c2nn[nH]c2n1` (stereo partly drawn) [Example 21, 7-{1-[1-(Cyclobutylmethyl)-1H-pyrazol-4-yl]-3-{[(1 r,4r)-4-phenylcyclohexyl]amino}propyl}-3H-[1,2,3]triazolo[4,5-b]pyridin-5-amine], the IC50 in assay [1] and in assay [2] was 101 to 999 nM in each case. On to `Nc1cc(C(CCCc2ccccc2)c2cnn(Cc3cccnc3)c2)c2nn[nH]c2n1` (stereo not drawn) [Example 12, 7-{4-Phenyl-1-[1-(pyridin-3-ylmethyl)-1H-pyrazol-4-yl]butyl}-3H-[1,2,3]triazolo[4,5-b]pyridin-5-amine], for which the IC50 in assay [2] lay within 101 to 999 nM.

Source of the values: US11059818B2, “Triazolopyridine inhibitors of myeloperoxidase” (BRISTOL-MYERS SQUIBB COMPANY, priority 2016, dated 2021).
